# Measured values published in ChEMBL document CHEMBL1201862, “PubChem BioAssay data set” (2004).
# Activity calls are given as the source filed them.
# Experiments:
# [1] = Artemis endonuclease inhibitor potency, dose response, biochemical, fluorescence intensity (AID 720701); assay type: functional;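 note: Artemis endonuclease enzyme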
# [2] = biological target: Serine/threonine-protein phosphatase PP1-alpha catalytic subunit (Homo sapiens, UniProt P62136); test: PP1 phosphatase inhibitors, dose response, biochemical, fluorescence (AID 2394)
# Serine/threonine-protein phosphatase PP1-alpha catalytic subunit, sequence (P62136 whole entry): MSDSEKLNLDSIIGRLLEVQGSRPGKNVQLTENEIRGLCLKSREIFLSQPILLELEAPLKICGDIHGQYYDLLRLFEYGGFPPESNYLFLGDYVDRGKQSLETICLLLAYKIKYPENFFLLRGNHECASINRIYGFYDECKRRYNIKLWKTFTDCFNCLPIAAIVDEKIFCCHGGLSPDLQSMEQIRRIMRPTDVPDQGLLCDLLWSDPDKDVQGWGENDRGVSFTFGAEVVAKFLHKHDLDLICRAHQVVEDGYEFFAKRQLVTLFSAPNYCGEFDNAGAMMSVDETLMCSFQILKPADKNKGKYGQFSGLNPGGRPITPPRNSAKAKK
# [3] = biological target: T1, Tyrosine-protein phosphatase non-receptor type 22 (Homo sapiens, UniProt Q9Y2R2); test: PTPN22 phosphatase inhibition, dose response, selectivity assay for STEP inhibitor project, biochemical (AID 624241); assay type: functional
# T1 sequence (Q9Y2R2 whole entry): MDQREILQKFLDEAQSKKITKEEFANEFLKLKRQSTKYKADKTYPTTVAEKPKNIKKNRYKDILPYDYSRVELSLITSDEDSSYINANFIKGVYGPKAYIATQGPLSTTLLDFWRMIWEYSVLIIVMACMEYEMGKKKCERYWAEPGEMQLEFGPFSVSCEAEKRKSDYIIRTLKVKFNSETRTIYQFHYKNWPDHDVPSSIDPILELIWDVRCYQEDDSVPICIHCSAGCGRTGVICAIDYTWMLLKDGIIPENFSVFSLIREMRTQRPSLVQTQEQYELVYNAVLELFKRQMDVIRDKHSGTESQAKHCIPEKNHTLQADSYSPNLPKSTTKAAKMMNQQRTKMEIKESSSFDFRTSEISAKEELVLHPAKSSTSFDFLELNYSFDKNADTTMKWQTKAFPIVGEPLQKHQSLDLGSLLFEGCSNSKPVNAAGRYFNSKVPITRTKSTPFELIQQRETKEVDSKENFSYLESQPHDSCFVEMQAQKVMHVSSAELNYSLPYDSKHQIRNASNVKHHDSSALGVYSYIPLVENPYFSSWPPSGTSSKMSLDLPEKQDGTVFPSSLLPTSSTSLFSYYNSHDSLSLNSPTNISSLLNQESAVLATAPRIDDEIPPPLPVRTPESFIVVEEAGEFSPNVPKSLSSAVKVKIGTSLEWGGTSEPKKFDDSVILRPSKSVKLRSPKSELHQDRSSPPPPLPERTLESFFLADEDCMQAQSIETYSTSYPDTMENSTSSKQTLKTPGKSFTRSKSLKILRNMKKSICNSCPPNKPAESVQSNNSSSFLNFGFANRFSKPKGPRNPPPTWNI
# [4] = biological target: Envelope glycoprotein gp160 (Human immunodeficiency virus 1, UniProt Q6QLK5); test: inhibitors of HIV fusion peptide binding, primary screen, biochemical, uHTS, fluorescence dequenching (AID 1986)
# Envelope glycoprotein gp160, sequence (Q6QLK5 whole entry, the tested form may be a part): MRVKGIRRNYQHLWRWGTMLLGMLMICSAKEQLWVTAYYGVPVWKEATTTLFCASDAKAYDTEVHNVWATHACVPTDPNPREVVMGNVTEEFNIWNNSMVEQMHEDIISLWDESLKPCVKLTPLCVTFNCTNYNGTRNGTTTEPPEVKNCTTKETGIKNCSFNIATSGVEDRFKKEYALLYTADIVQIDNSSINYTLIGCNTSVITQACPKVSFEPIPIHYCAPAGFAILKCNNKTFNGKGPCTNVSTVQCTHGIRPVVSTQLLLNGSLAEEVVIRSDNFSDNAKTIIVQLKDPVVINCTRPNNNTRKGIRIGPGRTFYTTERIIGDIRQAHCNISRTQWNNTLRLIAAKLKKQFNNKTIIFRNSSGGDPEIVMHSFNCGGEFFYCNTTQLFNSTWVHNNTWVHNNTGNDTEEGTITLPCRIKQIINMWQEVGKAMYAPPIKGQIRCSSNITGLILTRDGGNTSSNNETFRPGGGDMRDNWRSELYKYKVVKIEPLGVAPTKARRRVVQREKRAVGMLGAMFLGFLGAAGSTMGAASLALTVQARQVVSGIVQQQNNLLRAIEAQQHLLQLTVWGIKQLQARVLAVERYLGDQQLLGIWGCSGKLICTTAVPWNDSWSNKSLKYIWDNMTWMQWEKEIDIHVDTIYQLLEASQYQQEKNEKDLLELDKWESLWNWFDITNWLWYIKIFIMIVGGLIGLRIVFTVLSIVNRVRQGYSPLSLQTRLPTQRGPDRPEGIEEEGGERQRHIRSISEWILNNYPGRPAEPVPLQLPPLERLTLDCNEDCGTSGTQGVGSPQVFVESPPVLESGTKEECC
# [5] = biological target: T2, Tyrosine-protein phosphatase non-receptor type 7 (Homo sapiens, UniProt P35236); test: HePTP (PTPN7) phosphatase inhibitor potency, SAR follow-up, biochemical, set 2 (AID 449736); assay type: functional
# T2 sequence (P35236 whole entry): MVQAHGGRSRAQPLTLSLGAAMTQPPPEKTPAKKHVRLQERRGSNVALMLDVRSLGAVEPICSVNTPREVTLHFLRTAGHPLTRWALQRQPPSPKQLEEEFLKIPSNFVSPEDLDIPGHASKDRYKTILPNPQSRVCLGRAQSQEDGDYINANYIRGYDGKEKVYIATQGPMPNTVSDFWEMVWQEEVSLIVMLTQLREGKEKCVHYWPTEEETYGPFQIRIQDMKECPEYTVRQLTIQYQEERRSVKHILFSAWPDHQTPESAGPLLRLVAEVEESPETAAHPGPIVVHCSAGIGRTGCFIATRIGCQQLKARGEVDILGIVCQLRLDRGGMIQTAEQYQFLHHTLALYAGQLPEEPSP
# [6] = biological target: Dual specificity protein phosphatase 3 (Homo sapiens, UniProt P51452); test: VHR1 phosphatase inhibitors, biochemical (AID 1878)
# Dual specificity protein phosphatase 3, sequence (P51452 whole entry): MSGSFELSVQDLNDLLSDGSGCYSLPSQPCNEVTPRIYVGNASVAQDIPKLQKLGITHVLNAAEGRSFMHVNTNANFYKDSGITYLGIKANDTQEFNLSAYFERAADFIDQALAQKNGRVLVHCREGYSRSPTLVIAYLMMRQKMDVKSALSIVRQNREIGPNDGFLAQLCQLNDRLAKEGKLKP
# [7] = biological target: T3, Caspase-3 (Homo sapiens, UniProt P42574); test: Dose-response confirmation of uHTS inhibitor hits of Sentrin-Specific Protease 8 in a Caspase-3 Fluorescence assay.; assay type: functional
# T3 sequence (P42574 whole entry): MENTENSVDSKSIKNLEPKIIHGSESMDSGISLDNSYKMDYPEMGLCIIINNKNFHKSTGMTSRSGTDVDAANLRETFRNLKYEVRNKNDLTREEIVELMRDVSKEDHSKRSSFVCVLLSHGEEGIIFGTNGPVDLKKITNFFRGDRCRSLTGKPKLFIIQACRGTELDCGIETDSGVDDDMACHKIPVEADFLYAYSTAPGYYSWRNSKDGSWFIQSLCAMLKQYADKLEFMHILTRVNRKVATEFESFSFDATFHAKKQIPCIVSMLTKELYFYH
# [8] = biological target: Phospholipase A2 (Homo sapiens, UniProt P04054); assay type: functional;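 note: confirmatory dose-response counterscreen on phospholipase A2, testing hits that came from an ultra-high-throughput screen for ATG4B inhibitors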
# Phospholipase A2, sequence (P04054 whole entry): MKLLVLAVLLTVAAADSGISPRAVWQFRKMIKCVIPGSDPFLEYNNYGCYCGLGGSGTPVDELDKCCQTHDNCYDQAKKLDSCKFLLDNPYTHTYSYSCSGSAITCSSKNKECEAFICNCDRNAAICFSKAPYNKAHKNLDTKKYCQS
# [9] = biological target: T4, Aminopeptidase N (Plasmodium falciparum FcB1/Columbia, UniProt O96935); test: P. falciparum M1AAP inhibitors, biochemical, fluorogenic H-Leu-NHMec substrate, 1536-well (AID 1445); design: species or system Plasmodium falciparum 3D7, 3D7
# T4 sequence (O96935 whole entry): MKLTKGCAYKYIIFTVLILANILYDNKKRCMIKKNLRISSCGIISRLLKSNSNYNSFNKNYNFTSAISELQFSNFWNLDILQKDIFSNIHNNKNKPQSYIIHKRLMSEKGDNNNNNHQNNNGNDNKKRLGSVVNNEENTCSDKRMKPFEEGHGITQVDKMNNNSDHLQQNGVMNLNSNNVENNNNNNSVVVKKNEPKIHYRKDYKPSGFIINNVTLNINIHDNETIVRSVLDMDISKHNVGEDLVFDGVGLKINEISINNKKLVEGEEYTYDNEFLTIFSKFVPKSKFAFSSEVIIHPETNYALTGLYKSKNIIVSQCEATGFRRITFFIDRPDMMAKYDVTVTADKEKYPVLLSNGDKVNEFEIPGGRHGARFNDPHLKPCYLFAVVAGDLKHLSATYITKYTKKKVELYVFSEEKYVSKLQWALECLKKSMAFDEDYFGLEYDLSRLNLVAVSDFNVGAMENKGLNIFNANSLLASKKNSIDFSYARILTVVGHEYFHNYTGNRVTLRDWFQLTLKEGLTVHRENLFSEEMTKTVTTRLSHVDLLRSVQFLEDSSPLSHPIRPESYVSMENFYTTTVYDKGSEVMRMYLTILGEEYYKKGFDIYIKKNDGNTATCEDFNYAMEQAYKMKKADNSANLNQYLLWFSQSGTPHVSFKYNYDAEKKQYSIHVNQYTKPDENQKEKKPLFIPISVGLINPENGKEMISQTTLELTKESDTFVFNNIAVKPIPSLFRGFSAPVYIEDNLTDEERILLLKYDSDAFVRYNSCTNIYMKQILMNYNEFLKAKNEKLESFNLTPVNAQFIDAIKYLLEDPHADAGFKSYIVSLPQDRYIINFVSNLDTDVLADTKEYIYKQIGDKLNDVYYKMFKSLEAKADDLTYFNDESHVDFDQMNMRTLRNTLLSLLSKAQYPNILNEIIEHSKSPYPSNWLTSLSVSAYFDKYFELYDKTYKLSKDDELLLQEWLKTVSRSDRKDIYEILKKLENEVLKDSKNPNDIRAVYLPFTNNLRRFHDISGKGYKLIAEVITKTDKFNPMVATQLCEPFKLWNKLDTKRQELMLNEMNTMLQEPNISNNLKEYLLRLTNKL
smiles,measurement,setting,value
Cc1oc2c(c1C(=O)c1ccccc1)C(=O)C(=O)c1ccccc1-2,IC50,[1],1.48 µM (active)
O=C1CCCC2=C1C1(O)C(=O)c3ccccc3C1(O)O2 (centres undefined),IC50,[2],> 67 µM (not active)
CSc1ccc(C=NNc2ccc(S(=O)(=O)Nc3ccccc3C(=O)O)cc2[N+](=O)[O-])cc1,IC50,[3],2.82 µM (active)
O=C(O)COc1ccc(/C=N/NC(=O)c2ccc(-c3csc(Nc4ccc(Cl)cc4)n3)cc2)cc1,IC50,[4],15 µM (active)
same,IC50,[5],0.193 µM (active)
same,IC50,[6],1.3 µM (active)
COc1cc(NCCCNC(C)C)c2nccc(C)c2c1,IC50,[7],13.8 µM (active)
CC(/C=C1\SC(=S)N(NS(=O)(=O)c2ccccc2)C1=O)=C\c1ccccc1,IC50,[8],8.23 µM (active)
same,IC50,[9],45.4 µM (active)
